{"source": "paper PMC11892739", "about": "“Site-specific molecular glues for the 14-3-3/Tau pS214 protein–protein interaction via reversible covalent imine tethering” (RSC Medicinal Chemistry, 2025)", "key": {"[1]": {"tested_on": "14-3-3ζ/Tau pS2 peptide interaction", "assay": "Fluorescence anisotropy 14-3-3ζ titration in the presence of 250 μM compound and Tau pS2 peptide", "assay_type": "binding", "details": "250 μM compound; 100 nM client peptides, 10 nM Tau pS2 peptide", "method": "On the other hand, the PPI stabilizing potency of series 1 compounds was highly dependent on the position and chemical property of the substituent. […] The compound screen for these compounds was further complemented by 14-3-3ζ titration assays in the presence of a constant concentration of compound (250 μM) and Tau pS2 peptide (10 nM) (Fig. 3c, ESI ^† Fig. S6).\nThis statement is strengthened by the diminished stabilizing activity when shifting the more polar chloro substituent from the para (14) to the ortho (5) to the meta position (8), respectively. […]\nchromatography (HisTrap high performance cartridges, Cytiva). Typically two 5 mL columns were used for a 2 L culture in which the lysate was loaded on the column, washed with 10 CV wash buffer (50 mM Hepes, pH 8.0, 300 mM NaCl, 25 mM imidazole, 2 mM βME), and eluted with several fractions (2-4 CV) of elution buffer (50 mM Hepes, pH 8.0, 300 mM NaCl, 250 mM imidazole, 2 mM βME). Fractions containing the 14-3-3 protein were combined and dialyzed into 25 mM HEPES pH 8.0, 200 mM NaCl, 10 mM MgCl2, 2 mM βME, followed by dialysis into 25 mM HEPES, 100 mM NaCl, 10 mM MgCl2, 500 μM TCEP (adjusted to pH 8.0). Dialyzed protein was concentrated to ∼40 mg/mL, analyzed by Q -Tof LC/MS, and aliquots were flash -frozen for storage at −80 °C. For 14 -3-3σ∆c, 1 mg TEV per 100 mg purified protein was added to the dialysis to remove the purification tag. The cleaved sample was then again loaded on a 10 mL Ni-NTA column to separate the cleaved product from the expression tag and residual uncleaved protein. The flowthrough was loade d on a Superdex 75 pg 16/60 size exclusion column (GE Life Sciences) using 25 mM HEPES, 100 mM NaCl, 10 mM MgCl2, 500 μM TCEP (adjusted to pH = 8.0) as running buffer. Fractions containing the 14 -3-3 protein were pooled and concentrated to ∼60 mg/mL, analyzed Q -Tof LC/MS, and aliquots were flash -frozen for storage at −80°C.\nFluorescence Anisotropy – compound titration\nCompound titration assays were performed by titrating compounds (in 1% DMSO, starting at 500 μM) in a 2-fold dilution series to preformed complex of fluorescein -labeled Tau pS2 (10 nM) and 14 -3-3ζ (100 nM) (which represents approximately 20% bound Tau pS2 peptide to 14 -3-3ζ to allow further complex formation by addition of fragments 1) in FA buffer (10 mM HEPES pH 7.4, 150 mM NaCl, 50 µM TCEP, 0.1% (v/v) Tween20, 0.1% (w/v) BSA). Dilution series were made in polystyrene low -volume 384 -well plates (Corning #4514, Black Round Bottom). Measurements were performed directly after plate preparation, using a Tecan SPARK plate reader at room temperature ( λex: 485±20 nm; λem: 535±25 nm; mirror: automatic; flashes: 30; settle time: 1 ms; gain: optimal; Z -position: calculated from well). Wells containing only fluorescein labelled peptide were used to set as G -factor calibrated from these wells. All data were analyzed using GraphPad Prism (10.0.1) and fitted with a four -parameter logistic model (4PL) to determine binding affinities (dissociation constant, KD). All data shown is background corrected for the signal without 14 -3-3ζ and the mean and standard deviation of technical duplicate is plotted, assay performed in a scientific duplicate for hit compounds.\nFluorescence Anisotropy – 14-3-3 titrations in the presence of compound To characterize the affinity of the Tau peptides for 14-3-3 in the presence of compound, 14-3-3ζ or γ was titrated in a 2-fold dilution series starting at 400 (for the 14-3-3ζ titrations to Tau pS2) or 800 (for the 14-3-3γ titrations to Tau pS214 or pS324) µM. 14-3-3 was added to 10 nM of fluorescein-labeled peptide (Tau pS2, Tau pS214 or Tau pS324) in the presence of 250 µM compound (1% DMSO). The assays were performed in a similar way as described above. Data shown is the average and standard deviation of a technical duplicate, top plateau corrected where needed, assay performed in a scientific duplicate.\nFluorescence Anisotropy – peptide screen […]"}, "14-3-3ζ/Rubic peptide": {"biological_target": "T1, 14-3-3ζ/Rubic peptide (Homo sapiens, UniProt P63104)", "T1 construct": "made in house; host or cells: NiCo21 (DE3) E. coli", "T1 sequence (P63104 whole entry, other chains not shown)": "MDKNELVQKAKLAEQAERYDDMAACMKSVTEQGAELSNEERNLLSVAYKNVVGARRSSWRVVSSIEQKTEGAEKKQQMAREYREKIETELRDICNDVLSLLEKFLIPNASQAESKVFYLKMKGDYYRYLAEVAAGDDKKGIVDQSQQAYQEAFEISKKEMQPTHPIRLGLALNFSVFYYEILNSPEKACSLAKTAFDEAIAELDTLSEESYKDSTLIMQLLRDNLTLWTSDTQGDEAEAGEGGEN", "assay": "FA peptide screen, 14-3-3ζ titration to client peptide and compound: Rubic", "assay_type": "binding", "details": "250 μM compound, 100 nM peptide; +1 Phe", "method": "Since the hub protein 14-3-3 binds to hundreds of phosphoprotein partners, selectivity of PPI stabilization is a major challenge. The interplay of chemical reactivity, and the topology and functionality of the composite binding pocket shaped by 14-3-3 and Tau potentially provide entries towards selective stabilization. […] Here, 14-3-3ζ was titrated to a constant concentration of client peptide (100 nM) and compound (250 μM) to determine the SF250μM values for the particular 14-3-3 PPI. A variety of 14-3-3 binding proteins was represented in this client panel whereby the size and hydrophobicity of the +1 amino acid were varied. […]\nchromatography (HisTrap high performance cartridges, Cytiva). Typically two 5 mL columns were used for a 2 L culture in which the lysate was loaded on the column, washed with 10 CV wash buffer (50 mM Hepes, pH 8.0, 300 mM NaCl, 25 mM imidazole, 2 mM βME), and eluted with several fractions (2-4 CV) of elution buffer (50 mM Hepes, pH 8.0, 300 mM NaCl, 250 mM imidazole, 2 mM βME). […] Dialyzed protein was concentrated to ∼40 mg/mL, analyzed by Q -Tof LC/MS, and aliquots were flash -frozen for storage at −80 °C. […] Fractions containing the 14 -3-3 protein were pooled and concentrated to ∼60 mg/mL, analyzed Q -Tof LC/MS, and aliquots were flash -frozen for storage at −80°C.\nFluorescence Anisotropy – compound titration […]"}}}
{"smiles": "CCc1ccc(-c2nccn2-c2ccc(C=O)c(Br)c2)cc1", "note": "[Compound 18]", "values": [{"measurement": "selectivity against panel of 13 14-3-3 client peptides (in words)", "setting": "[1]", "value": "selective for the 14-3-3ζ/Tau pS2 peptide complex"}, {"measurement": "stabilization of 14-3-3/Rubic peptide (in words)", "setting": "14-3-3ζ/Rubic peptide", "value": "no significant stabilization"}]}
